Key:
[1] = tested on: allergic rhinitis; experiment: Clinical efficacy: nasal symptoms and signs (effective rate); type: in vivo, human; details: 1-week treatment, oral
Text: (§1) From May 10, 2021 to Aug. 23, 2021, 36 patients diagnosed with allergic conjunctivitis complicated and allergic rhinitis were collected from Eye Hospital, China Academy of Chinese Medical Sciences, and they were divided into 2 groups according to a random number table method with 20 cases in the treatment group and 16 cases in the control group.
(§2) The treatment group was orally administered with the water decoction prepared in Example 1 with one dose a day and for twice a day, and the control group was orally administered with 10 mg of cetirizine capsules once a day.
(§3) 2. Evaluation Indexes: • 1) Ocular and nasal symptoms and signs were standardly divided into 4 grades (0: none, 1: mild: 2: moderate: and 3: severe); • 2) Systemic adverse reactions and local adverse reactions in the eyes and nose were recorded.
Rhinocnesmus: (1) none; (2) mild and intermittent; (3) moderate: an ant walking sensation that can be tolerated; and (4) severe: an ant walking sensation that cannot be tolerated.
Sneezing (number of consecutive sneezings): (1) none; (2) mild: 3-9; (3) moderate: 10-14; (4) severe: ≥15.
Nose running (number of nose blowings per day): (1) none; (2) mild: =4; (3) moderate: 5-9; (4) severe ≥10.
The effective rate evaluation method is based on standards established in Clinical Development Guidelines for Pharmaceutical Products for Treatment of Allergic Rhinoconjunctivitis published by the European Medicines Agency, Chinese Expert Consensus on Diagnosis and Treatment of Allergic Conjunctivitis by Chinese Journal of Ophthalmology, 2018, and Guidelines for Diagnosis and Treatment of Allergic Rhinitis (Chinese Journal of Otorhinolaryngology Head and Neck Surgery, 2016. Vol. 51), and is divided into 4 grades (0: none; 1: mild; 2: moderate; and 3: severe), and it is considered effective if two symptoms (or signs) are improved by one grade or more, or same symptom (or sign) is improved by two grades or more. ((2) to (1), (3) to (2) or (4) to (3) represents a one-grade improvement, and (3) to (1) represents a two-grade improvement).

[2] = tested on: allergic conjunctivitis; experiment: Clinical efficacy: ocular symptoms and signs (effective rate); type: in vivo, human; details: 1-week treatment, oral
Text: as §1, §2, §3
Eye itching: (1) none; (2) mild: the patient won't notice eye itching when busy at work, but can feel itching when free, or has intermittent eye itching, but it's not severe enough to need to be scratched with hand; (3) moderate: the patient has obvious eye itching, and can still tolerate this symptom, but has the desire to scratch it with hand; and (4) severe: the patient has very obvious and continuous eye itching and stabbing pain, and cannot tolerate these symptoms, and therefore normal life is affected.
Conjunctival congestion: (1) none; (2) mild: congestion takes place in palpebral conjunctiva and fornix in a reticular form; (3) moderate: congestion takes place in palpebral conjunctiva, fornix and bulbar conjunctiva in a reticular form; and (4) severe: congestion takes place in palpebral conjunctiva in a form of red patches, blood vessels are blurred, and obvious congestion takes place in fornix and bulbar conjunctiva;
Conjunctival edema: (1) none; (2) bulbar conjunctival edema can be seen under a slit lamp examination; (3) moderate; bulbar conjunctival edema can be directly seen under natural light; and (4) severe: bulbar conjunctival edema with vesicular protuberances; […]

Compound: O=C(O)COCCN1CCN(C(c2ccccc2)c2ccc(Cl)cc2)CC1 (stereo not drawn) [cetirizine]
- Effective Rate (nasal efficacy) [1]: 75.0%
- Effective (nasal efficacy) ([1]; number of patients): 12
- Ineffective (nasal efficacy) ([1]; number of patients): 4
- Effective Rate (ocular efficacy) [2]: 68.75%
- Effective (ocular efficacy) ([2]; number of patients): 11
- Ineffective (ocular efficacy) ([2]; number of patients): 5
